# Data from ChEMBL document CHEMBL3091427, “The discovery of the benzazepine class of histamine H3 receptor antagonists” (Bioorg Med Chem Lett, 2013).
# Legend:
# Liver microsome [1] = test: Intrinsic clearance in human liver microsomes; assay type: ADME
# Cytochrome P450 2D6 = Cytochrome P450 2D6 (Homo sapiens, UniProt P10635); test: Inhibition of human CYP2D6; assay type: ADME
# Liver microsome [2] = test: Intrinsic clearance in rat liver microsomes; assay type: ADME
# Histamine H3 receptor [3] = biological target: Histamine H3 receptor (Homo sapiens, UniProt Q9Y5N1); test: Antagonist activity at human histamine H3 receptor expressed in CHOK1 cells assessed as inhibition of GTPgammaS binding by scintillation proximity assay; assay type: functional, cell-based, CHO-K1
# Chain of Histamine H3 receptor (Homo sapiens, UniProt Q9Y5N1) (Q9Y5N1 whole entry): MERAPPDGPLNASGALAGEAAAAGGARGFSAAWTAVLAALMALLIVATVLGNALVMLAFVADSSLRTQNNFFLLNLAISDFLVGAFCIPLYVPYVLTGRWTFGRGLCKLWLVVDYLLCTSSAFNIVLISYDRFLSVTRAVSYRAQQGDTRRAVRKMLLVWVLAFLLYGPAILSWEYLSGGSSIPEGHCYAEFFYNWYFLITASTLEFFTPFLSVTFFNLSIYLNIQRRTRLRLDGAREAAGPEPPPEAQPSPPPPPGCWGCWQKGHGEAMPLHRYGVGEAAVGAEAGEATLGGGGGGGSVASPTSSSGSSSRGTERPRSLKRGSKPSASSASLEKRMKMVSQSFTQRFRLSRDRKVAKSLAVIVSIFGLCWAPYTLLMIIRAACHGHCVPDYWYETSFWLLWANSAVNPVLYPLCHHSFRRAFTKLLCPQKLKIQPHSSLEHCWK
# Rattus norvegicus [4] = test: Reversal of RAMH-induced dipsogenia in Lister Hooded rat at 3 mg/kg, po; assay type: functional
# Histamine H1 receptor = Histamine H1 receptor (Homo sapiens, UniProt P35367); test: Antagonist activity at human recombinant histamine H1 receptor expressed in CHO cells assessed as inhibition of histamine-induced effect by FLIPR assay; assay type: cell-based
# Chain of Histamine H1 receptor (P35367 whole entry): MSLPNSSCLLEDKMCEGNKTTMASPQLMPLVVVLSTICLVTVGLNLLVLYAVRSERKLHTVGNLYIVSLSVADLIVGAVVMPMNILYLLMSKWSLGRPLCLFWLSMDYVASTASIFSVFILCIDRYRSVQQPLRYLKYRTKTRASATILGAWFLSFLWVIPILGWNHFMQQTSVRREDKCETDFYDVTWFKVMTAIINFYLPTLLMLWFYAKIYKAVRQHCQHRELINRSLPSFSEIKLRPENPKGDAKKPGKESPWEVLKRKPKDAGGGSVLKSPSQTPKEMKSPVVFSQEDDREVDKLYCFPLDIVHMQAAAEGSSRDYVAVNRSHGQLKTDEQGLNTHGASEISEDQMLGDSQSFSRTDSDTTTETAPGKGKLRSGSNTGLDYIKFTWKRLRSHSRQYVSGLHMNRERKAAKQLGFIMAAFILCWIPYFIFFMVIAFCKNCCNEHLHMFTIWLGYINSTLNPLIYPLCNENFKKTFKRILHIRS
# Rattus norvegicus [5] = test: Reversal of RAMH-induced dipsogenia in Lister Hooded rat at 10 mg/kg, ip; assay type: functional; conditions: route intraperitoneal
# Albumin = Albumin (Homo sapiens, UniProt P02768); test: Binding affinity to human serum albumin; assay type: ADME; conditions: isolated protein
# Chain of Albumin (P02768 whole entry): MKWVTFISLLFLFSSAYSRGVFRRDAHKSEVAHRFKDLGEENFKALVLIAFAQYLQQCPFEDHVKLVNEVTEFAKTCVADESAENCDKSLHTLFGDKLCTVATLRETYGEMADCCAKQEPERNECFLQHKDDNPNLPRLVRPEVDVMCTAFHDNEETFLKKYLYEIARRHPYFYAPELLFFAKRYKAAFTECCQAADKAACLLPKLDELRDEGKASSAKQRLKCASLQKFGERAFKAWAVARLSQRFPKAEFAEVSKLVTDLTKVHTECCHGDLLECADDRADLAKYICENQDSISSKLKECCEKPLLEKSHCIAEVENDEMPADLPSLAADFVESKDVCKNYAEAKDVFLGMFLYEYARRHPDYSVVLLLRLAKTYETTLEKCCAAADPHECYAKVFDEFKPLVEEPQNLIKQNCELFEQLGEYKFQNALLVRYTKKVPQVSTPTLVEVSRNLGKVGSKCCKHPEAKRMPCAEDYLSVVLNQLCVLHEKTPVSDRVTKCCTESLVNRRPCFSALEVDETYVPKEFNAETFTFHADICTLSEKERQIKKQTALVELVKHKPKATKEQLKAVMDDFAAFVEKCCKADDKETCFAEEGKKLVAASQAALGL
# [6] = Terminal half life in iv dosed rat after 0.5 hrs; assay type: ADME, organism-based; conditions: in vivo, read-out: beta t1/2 (converted)
# [7] = Volume of distribution at steady state in iv dosed rat after 1 hr; assay type: ADME, organism-based; conditions: in vivo, read-out: Vdss
# [8] = Total blood clearance in iv dosed rat after 1 hr; assay type: ADME, organism-based; conditions: whole blood
# [9] = Ratio of drug level in brain to blood in Lister Hooded rat at 3 mg/kg, po after 2 hrs; assay type: ADME, organism-based; parameters: dose 3 mg/kg, route oral
# [10] = Drug level in Lister Hooded rat blood at 3 mg/kg, po after 2 hrs; assay type: ADME, organism-based; parameters: dose 3 mg/kg, route oral; conditions: whole blood, read-out: Ct
# [11] = Drug level in Lister Hooded rat brain at 3 mg/kg, po after 2 hrs; assay type: ADME, organism-based; parameters: dose 3 mg/kg, route oral; conditions: read-out: Ct
# Rattus norvegicus [12] = test: Ex vivo binding affinity to histamine H3 receptor in po dosed Lister Hooded rat; assay type: functional
# [13] = Lipophilicity, log D of the compound; assay type: physicochemical; conditions: octanol/water
# [14] = Dissociation constant, pKa of the compound; assay type: physicochemical
# Histamine H3 receptor [15] = biological target: Histamine H3 receptor (Rattus norvegicus, UniProt Q9QYN8); test: Displacement of [3H]R-alpha-methylhistamine from histamine H3 receptor in rat cerebral cortical membranes after 45 mins by liquid scintillation spectrometry; assay type: cell membranes
# Chain of Histamine H3 receptor (Rattus norvegicus, UniProt Q9QYN8) (Q9QYN8 whole entry): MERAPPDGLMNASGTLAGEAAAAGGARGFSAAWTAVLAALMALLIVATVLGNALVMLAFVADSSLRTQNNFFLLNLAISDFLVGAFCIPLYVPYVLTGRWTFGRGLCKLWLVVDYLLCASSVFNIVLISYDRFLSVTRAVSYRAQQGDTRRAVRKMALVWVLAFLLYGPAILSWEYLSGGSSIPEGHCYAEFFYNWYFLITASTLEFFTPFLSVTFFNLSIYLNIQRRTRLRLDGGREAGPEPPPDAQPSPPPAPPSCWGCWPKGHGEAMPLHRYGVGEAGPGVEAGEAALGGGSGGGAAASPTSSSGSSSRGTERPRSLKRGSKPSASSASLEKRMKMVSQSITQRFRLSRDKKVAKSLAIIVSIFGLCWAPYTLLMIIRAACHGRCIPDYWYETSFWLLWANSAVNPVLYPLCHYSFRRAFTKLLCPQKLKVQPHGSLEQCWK
# hERG (KCNH2) = hERG (KCNH2) (Homo sapiens, UniProt Q12809); test: Inhibition of human ERG at 10 uM by patch clamp assay
# Chain of hERG (KCNH2) (Q12809 whole entry): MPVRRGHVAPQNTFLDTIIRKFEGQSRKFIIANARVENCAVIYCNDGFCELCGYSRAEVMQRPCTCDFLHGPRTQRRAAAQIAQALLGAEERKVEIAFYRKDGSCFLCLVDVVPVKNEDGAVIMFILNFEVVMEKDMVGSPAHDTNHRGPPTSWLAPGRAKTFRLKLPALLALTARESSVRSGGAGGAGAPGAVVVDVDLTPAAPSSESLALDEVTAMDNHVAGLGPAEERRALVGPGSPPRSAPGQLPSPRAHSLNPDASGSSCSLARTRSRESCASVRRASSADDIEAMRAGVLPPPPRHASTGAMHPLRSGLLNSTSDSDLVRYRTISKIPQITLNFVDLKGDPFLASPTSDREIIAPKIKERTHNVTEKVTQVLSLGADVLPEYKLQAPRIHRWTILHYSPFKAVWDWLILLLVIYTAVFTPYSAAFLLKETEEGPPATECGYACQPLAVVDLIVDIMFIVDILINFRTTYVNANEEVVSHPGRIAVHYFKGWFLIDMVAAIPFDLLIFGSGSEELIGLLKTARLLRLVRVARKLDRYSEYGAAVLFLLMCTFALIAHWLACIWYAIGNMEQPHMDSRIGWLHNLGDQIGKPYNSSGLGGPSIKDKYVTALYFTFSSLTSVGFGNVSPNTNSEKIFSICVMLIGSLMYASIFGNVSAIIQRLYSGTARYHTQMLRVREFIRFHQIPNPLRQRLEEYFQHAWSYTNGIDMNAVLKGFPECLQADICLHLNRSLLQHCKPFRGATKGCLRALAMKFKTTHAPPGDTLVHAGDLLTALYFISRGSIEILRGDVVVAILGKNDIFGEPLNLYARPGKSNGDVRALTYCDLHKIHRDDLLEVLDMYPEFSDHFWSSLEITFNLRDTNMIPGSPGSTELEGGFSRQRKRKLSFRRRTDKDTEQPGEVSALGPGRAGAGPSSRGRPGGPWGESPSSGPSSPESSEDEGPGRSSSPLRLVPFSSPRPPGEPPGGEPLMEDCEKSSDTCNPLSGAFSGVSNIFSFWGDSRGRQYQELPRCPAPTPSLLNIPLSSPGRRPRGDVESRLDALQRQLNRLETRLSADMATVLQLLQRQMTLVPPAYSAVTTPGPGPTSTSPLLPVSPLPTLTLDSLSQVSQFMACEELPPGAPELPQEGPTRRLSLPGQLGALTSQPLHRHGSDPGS
# Chain of Cytochrome P450 2D6 (P10635 whole entry): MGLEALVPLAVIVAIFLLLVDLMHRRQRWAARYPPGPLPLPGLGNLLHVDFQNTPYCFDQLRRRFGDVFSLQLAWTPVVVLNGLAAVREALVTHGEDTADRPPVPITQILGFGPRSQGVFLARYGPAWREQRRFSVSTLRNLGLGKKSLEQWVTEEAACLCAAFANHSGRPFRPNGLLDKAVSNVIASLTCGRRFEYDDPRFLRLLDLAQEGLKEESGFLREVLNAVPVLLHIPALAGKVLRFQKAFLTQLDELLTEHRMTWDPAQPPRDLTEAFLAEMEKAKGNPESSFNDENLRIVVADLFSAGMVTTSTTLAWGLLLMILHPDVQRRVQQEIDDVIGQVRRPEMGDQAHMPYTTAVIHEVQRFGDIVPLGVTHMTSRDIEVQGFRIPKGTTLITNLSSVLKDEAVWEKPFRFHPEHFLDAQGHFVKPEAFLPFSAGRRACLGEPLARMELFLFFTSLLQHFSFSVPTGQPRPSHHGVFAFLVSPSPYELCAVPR
SMILES,CLH (Liver microsome [1]) [mL/min/g],CLH (Liver microsome [2]) [mL/min/g],Ki (Histamine H3 receptor [3]) [nM],further results
c1cc2c(cc1OCCCN1CCCCC1)CCNC2,,,2.51,
c1ccc(COc2ccc3c(c2)CCN(C2CC2)CC3)cc1,,,5.01,
CN1CCc2ccc(OCc3ccccc3)cc2CC1,,,316,
c1ccc(COc2ccc3c(c2)CCN(C2CCC2)CC3)cc1,12,> 50,0.251,IC50 (Cytochrome P450 2D6): 600 nM
O=C(N[C@H]1CCN(Cc2ccc(OCCCN3CCCCC3)cc2)C1)c1ccc2c(c1)OCO2,,,0.0251,Activity (Rattus norvegicus [5]): 78%; Activity (Albumin): 96%; Ki (Histamine H1 receptor): > 2510 nM
c1ccc(COc2ccc3c(c2)CCN(C2CCCC2)CC3)cc1,19,> 50,0.794,IC50 (Cytochrome P450 2D6): 600 nM
CC(C)CN1CCc2ccc(OCc3ccccc3)cc2CC1,,,25.1,
c1ccc(COc2ccc3c(c2)CCNCC3)cc1,,,> 10000,
OC1CCN(CCCOc2ccc3c(c2)CCNCC3)CC1,,,> 10000,
c1ccc(COc2ccc3c(c2)CCN(CC2CC2)CC3)cc1,11,> 50,10,IC50 (Cytochrome P450 2D6): 1500 nM; Ki (Histamine H1 receptor): 1000 nM
c1cc2c(cc1OCCCN1CCCCC1)CCNCC2,,,3.98,Ki (Histamine H1 receptor): 1260 nM
O=C(c1ccc(OCCCc2cnc[nH]2)cc1)C1CC1 [CIPROXIFAN],,,,Activity (Rattus norvegicus [4]): 100%; Activity (Albumin): 80%; Ki (Histamine H1 receptor): > 2510 nM
CC(C)N1CCc2ccc(OCc3ccccc3)cc2CC1,,,20,
c1ccc(COc2ccc3c(c2)CCN(Cc2ccccc2)CC3)cc1,,,> 1000,
CC(C)N1CCC(Oc2ccc3c(c2)CCNCC3)CC1,,,2.51,Ki (Histamine H1 receptor): > 2510 nM
c1cc2c(cc1OCCN1CCCCC1)CCNCC2,,,158,
CN(C)CCCOc1ccc2c(c1)CCNCC2,,,100,
c1cc2c(cc1OCCCN1CCOCC1)CCNCC2,,,100,

# Further lines, with some results ahead:
CLH (Liver microsome [1]) [mL/min/g],CLH (Liver microsome [2]) [mL/min/g],Ki (Histamine H3 receptor [3]) [nM],SMILES,further results
3.4,2.5,0.398,Cn1c(=O)ccc2cc(COc3ccc4c(c3)CCN(C3CCC3)CC4)ccc21,IC50 (Cytochrome P450 2D6): 4200 nM
0.5,1.2,0.316,c1cc2c(cc1OC1CCNCC1)CCN(C1CCC1)CC2,
0.9,0.7,0.501,c1cc2c(cc1OCC1CCNCC1)CCN(C1CCC1)CC2,IC50 (Cytochrome P450 2D6): 19000 nM; Activity (Rattus norvegicus [4]): 44%
,,0.501,c1cc2c(cc1OCCCN1CCCCC1)CCN(CC1CCCO1)CC2 (centres undefined),Ki (Histamine H1 receptor): 2000 nM
,,15.8,CC(=O)N1CCc2ccc(OCCCN3CCCCC3)cc2CC1,
,,> 398,FC1(F)CCN(CCCOc2ccc3c(c2)CCNCC3)CC1,
,,0.794,c1cc2c(cc1OCCN1CCCCC1)CCN(CC1CC1)CC2,Ki (Histamine H1 receptor): > 2000 nM
1.2,3.5,1.58,Cc1cc(C(=O)N2CCC(Oc3ccc4c(c3)CCN(C3CCC3)CC4)CC2)no1,IC50 (Cytochrome P450 2D6): 43000 nM; Activity (Rattus norvegicus [4]): 11%
,,15.8,c1cc2c(cc1OCCCN1CCCCC1)CCN2,
0.9,1.1,1,O=C(N1CCOCC1)N1CCC(Oc2ccc3c(c2)CCN(C2CCC2)CC3)CC1,half-life [6]: 1.2 h; Vd [7]: 4.6 L/kg; clearance [8]: 63 mL/min/kg; Kp at 2 h [9]: 1.1; concentration at 2 h [10]: 470 nM; concentration at 2 h [11]: 530 nM; ED50 (Rattus norvegicus [12]): 2.2 mg/kg; logD [13]: 2.2; pKa [14]: 9.2; Ki (Histamine H3 receptor [15]): 12.6 nM; Activity (Rattus norvegicus [4]): 100%; Activity (Albumin): 49%; inhibition at 10 µM (hERG (KCNH2)): < 30%
,,10,c1ccc(COc2ccc3c(c2)CCN(C2CCCCC2)CC3)cc1,
0.5,2.9,0.794,CS(=O)(=O)N1CCC(Oc2ccc3c(c2)CCN(C2CCC2)CC3)CC1,IC50 (Cytochrome P450 2D6): 13000 nM; Activity (Rattus norvegicus [4]): 6%
0.8,2.9,0.501,O=C(c1ccc(Cl)cc1)N1CCC(Oc2ccc3c(c2)CCN(C2CCC2)CC3)CC1,Activity (Rattus norvegicus [4]): 89%
,,0.501,c1cc2c(cc1OCCCN1CCCCC1)CCN(CC1CC1)CC2,Ki (Histamine H1 receptor): 2000 nM
,,10,c1ccc(N2CCc3ccc(OCCCN4CCCCC4)cc3CC2)cc1,Ki (Histamine H1 receptor): 1000 nM
